Assays:
[1] = system: Normal Human Astrocytes; test: Cell Death ELISAplus, Aβ-induced apoptosis (fragmented nucleosomes); format: cell-based; details: 1 day
Description: The extent of apoptosis caused by Aβ in the presence or absence of MTZ was assessed by quantitation of nucleosome formation using Cell Death ELISA^plus (Roche Applied Science, Indianapolis, Ind.). Briefly, after incubation with the peptides, plates were centrifuged in a Beckman J-6B centrifuge (10 min; 1,000 rpm), cells lysed, and DNA-histone complexes (nucleosomes) quantitated by Cell Death ELISA, as previously described (Fossati et al., 2010).

[2] = system: caspase 9 in glial cells; test: Caspase-Glo 9 activity after Aβ challenge; format: cell-based, human
Description: Caspase 9 and caspase 3/7 activation was measured by luminescent assays (Caspase-Glo 9 and caspase-Glo 3/7, Promega, Madison, Wis.), in cells treated with the Aβ peptides in DMEM without FBS. Briefly, 10,000 cells/well were plated in 96 wells plates and incubated for 24 hours with the freshly solubilized Aβ peptides. Caspase-Glo reagent was added to the cell cultures resulting in cell lysis, followed by caspase cleavage of the substrate and generation of a luminescent signal produced by the luciferase reaction. After 40 minutes incubation, the amount of caspase activity was evaluated in a plate-reading luminometer (Synergy HT Multi-Mode Microplate Reader, Biotek, Winooski, Vt.) as described in (Fossati et al., 2012b). To inhibit non-specific background activity, the proteasome inhibitor MG-132 was added to the Caspase-Glo reagent before the experiment as indicated by the manufacturer. In all cases results are expressed as fold-change compared to untreated control cells.

[3] = system: Glioma cells; test: Cellular ROS (CellROX); format: cell-based, human; details: Aβ42 in the presence or absence of MTZ; 24 hours
Description: For the last 30 minutes, the cells were incubated in the experimental medium at 37° C. with 5 μM CellROX Deep Red (Life Technologies) and 1 μg/ml Hoechst Stain (Immunochemistry Technologies, Bloomington, Minn.), as described by the manufacturer, followed by washes. Fluorescence was measured using a FlexStation 3 Multi-Mode Microplate Reader (Molecular Devices, Sunnyvale, Calif.).

[4] = target: T1, Aβ42 and Aβ40-Q22 (Homo sapiens, UniProt P05067, E693Q); test: Thioflavin T binding assay of Aβ aggregation; details: 100 or 300 μM MTZ; aggregation up to 3 days
T1 construct: purchased James I. Elliott at Yale University (custom chemical peptide synthesis)
Description: Binding of the different Aβ peptides to Thioflavin-T was monitored by fluorescence evaluation, as described (Fossati et al., 2010; Walsh et al., 1999). Briefly, after peptide aggregation at 50 μM concentration in culture media in the presence or absence of MTZ, 6 μl aliquots from each of the time-points were added to 184 μl of 50 mM Tris-HCl buffer, pH 8.5, and 10 μl of 0.1 mM Thioflavin-T (Sigma). Fluorescence was recorded for 300 s in a LS-50B luminescence spectrometer (Perkin Elmer, Waltham, Mass.) with excitation and emission wavelengths of 435 and 490 nm (slit width 10 nm), respectively, as described (Solito et al., 2009; Viana et al., 2009).

Q: Which “DNA fragmentation after Aβ challenge” value ([1]; 100 μM MTZ) does the source give for `CC(=O)/N=c1/sc(S(N)(=O)=O)nn1C` [MTZ, methazolamide] here?
A: significantly effective at reducing DNA fragmentation

Q: And the “Aβ-mediated increase in fragmented nucleosomes” value ([1]; 300 μM MTZ, Aβ42 10 μM)?
A: completely prevented

Q: And the “caspase 9 over-activation” value ([2]; 100 or 300 μM MTZ, 10 μM Aβ42, 24 hours)?
A: significantly reduced

Q: What about the “caspase 9 activity, drug alone” value ([2]; MTZ alone in absence of Aβ) of the same compound?
A: did not have any effect

Q: And the “levels of cellular ROS (CellROX)” value [3]?
A: did not significantly change

Q: What about the “Aβ fibrillization by Thioflavin T fluorescence” value [4] of the same compound?
A: no significant difference in fibrillization

— patent publication US10780094B2, “Use of carbonic anhydrase inhibitors for treatment of neurological and psychiatric disorders” (New York University, priority 2016, dated 2020)
